Assays:
human T cells = test: [3H]adenosine uptake in activated human T cells; assay type: cell-based; conditions: Homo sapiens, T-cell; T cells activated 2 days in presence of compound, washed, [3H]adenosine uptake; read-out: IC50, inhibition of uptake of adenosine into human T cells
Source text: Applicant observed that activated human T cells took up [3H]adenosine, and this uptake was reduced in the presence of the selective ENT1 inhibitor dilazep, confirming that ENT1 is the dominant transporter involved in adenosine uptake in T cells.
Human T cells were activated for 2 days in the presence of Compound 1 or dilazep. The cells were then washed and used in a [^3H]adenosine uptake experiment. […] (See FIG. 27A.)

MDA-MB-231 cells = test: MDA-MB-231 subcutaneous tumor model in humanized NCG mice; assay type: in vivo, mouse; conditions: day 51; Compound 1 30 mg/kg i.p. twice a day; nivolumab 10 mg/kg i.p. every 5 days
Method: The anti-tumor therapeutic efficacy of Compound 1 monotherapy, nivolumab monotherapy, and Compound 1-nivolumab combination therapy was assessed in ‘humanized’ mice with subcutaneous tumors resulting from the subcutaneous injection of MDA-MB-231 cells, a human triple-negative breast cancer cell line.
Human cell line xenograft experiments were performed at Transcure (France) and all associated animal procedures were reviewed and approved by the local ethics committee. The experiment was carried out with the NOD-Prkdc^em26cd52Il2rg^em26cd22/NjuCrl immunodeficient mouse strain (NCG from Charles River Laboratories, Wilmington, MA, USA). Four-week-old immunodeficient NCG mice were engrafted with cord-blood-derived human CD34^+ hematopoietic stem and progenitor cells (French Blood Institute, Paris, France) 2 days after chemical myeloablative treatment. Fourteen weeks after cell injection, engraftment level was monitored with the analysis of human CD45^+ cells among total blood leukocytes by flow cytometry (Attune, Life Technologies/Thermo Fisher Scientific, Waltham, MA, USA). […]
All the animals used were monitored daily, checking their clinical signs of distress and body weight and tumors were measured three times a week using an electronic caliper. The tumor volume was determined by applying the formula Length×(Width)^2×0.5. […]

Structure (SMILES): COc1cc(C(=O)O[C@@H]2CCCOc3cc(cc(OC)c3OC)C(=O)NCCCN3CCCN(CC2)CC3)cc(OC)c1OC [Compound 1, (12R)-7^4,7^5-dimethoxy-6-oxo-8-oxa-5-aza-1(1,4)-diazepana-7(1,3)-benzenacyclotetradecaphane-12-yl 3,4,5-trimethoxybenzoate]
- IC50 (human T cells): 0.2 nM
- Tumor volume compared with vehicle group (MDA-MB-231 cells): not statistically significantly different

From patent US20260284074A1, “ENT1 Inhibitors in Combination with Checkpoint Inhibitors” (iTeos Belgium SA, priority 2023, published 2026)
